Key:
K562 [1] = experiment: Ability to inhibit the growth of human myelogenous leukemia K562 cells; type: functional, cell-based
K562 [2] = experiment: Ability to inhibit the growth of human myelogenous leukemia K562 cells at 100 uM; no growth; type: functional, cell-based

SMILES: NC(=O)c1csc([C@@H]2O[C@H](CO)[C@@H](O)[C@H]2O)c1
- IC50 (K562 [1]): 4.6 µM

SMILES: NC(=O)c1c[nH]c([C@@H]2O[C@H](CO)[C@@H](O)[C@H]2O)n1
- Activity (K562 [2]): no growth

— ChEMBL document CHEMBL1134052, “A new C-nucleoside analogue of tiazofurin: synthesis and biological evaluation of 2-beta-D-ribofuranosylimidazole-4-carboxamide (imidazofurin)” (Bioorg Med Chem Lett, 2001)
